“And” between values parts separate entries of the source, which are not always exact repeats. Equal entries are not always repeated. “Also recorded” adds a separate entry of the source. Where two headings read alike, the source gives them in different places.
Assays:
[1] = In vivo toxicity and histology of C458 in WT mice; parameters: species or system mouse; conditions: 50 mg/kg for one month ad libitum in drinking water
Experimental: To evaluate the toxicity of C458 in vivo, 2-month old breeding WT mice were treated with 50 mg/kg of C458 via drinking water. Untreated littermates were used as controls. After one month of treatment, adult and newborn animals were sacrificed and tissue was collected for histological examination.

[2] = PK of C458 in mice, plasma and brain by LC-MS/MS; assay type: in vivo, mouse; conditions: for Brain Concentration / Plasma Concentration / concentration at 0.5 h / concentration at 1 h / concentration at 2 h: single mouse; for concentration at 0.5 h / concentration at 1 h / concentration at 2 h / half-life / Kp: mouse; for concentration at 0.5 h / concentration at 1 h / concentration at 2 h: 2 mg/kg
Experimental: FIG. 10 is a graph plotting the elimination rate for C458 in brain and plasma of mice treated with 2.5 mg/kg of the compound via intrafemoral vein injection. Animals were sacrificed at 30 minutes, 1 hour, and 2 hours post injection.
The feasibility of developing the C458 series was evaluated by determining the in vivo PK profile for C458. Re-synthesized C458 was administered intravenously to wild type mice at 2 mg/kg. Frozen serum and brain tissue samples were analyzed using a bioanalytical LC-MS/MS method.
A rough estimation of elimination rate and half-life of C458 was determined in vivo by delivering a dose of 2.5 mg/kg to each mouse via intrafemoral vein injection. Each group of animals (n=2) was sacrificed at 30 minutes, 1 hour, and 2 hours post injection. Blood and brain tissue was collected, flash frozen, and the concentration of C458 was estimated using a LC-MS/MS assay with a linear calibration curve from 1 ng/ml to 1 ug/ml in both plasma and brain.
For rough estimation of elimination rate and half-life, a one-compartment model and the first rate elimination was assumed. Plotting (Ln) of concentration vs. time provided the elimination rate and half-life of C458 in plasma and the brain (FIG. 10).

MC65 cells = assay: Efficacy against Aβ toxicity in MC65 Tet on/off cells (MTT assay); assay type: cell-based; conditions: for cell protective activity in Aβ-producing MC65 cells: 2.5 μM and 5 μM, compared to CP2; for EC50: nonlinear regression
Experimental: FIGS. 4A and 4B are a pair of graphs plotting survival of MC65 cells after treatment with the indicated compounds, in the presence (Tet/off) or absence (Tet/on) of Aβ expression. MC65 cells were cultured for 72 hours in the presence (on) or absence (off) of tetracycline in OPTI-MEM media without serum. […] Cell viability was measured with an MTT assay 72 hours later. Experiments were performed in triplicates. Every 96-well plate had its own on/off control. Four experimental compounds were tested per each plate. Experiments were repeated independently twice.
(§1) FIGS. 5A and 5B are a pair of graphs plotting survival of MC65 cells after treatment with the indicated compounds, in the presence (Tet/off) or absence (Tet/on) of Aβ expression. MC65 cells were cultured for 72 hours in the presence (on) or absence (off) of tetracycline in OPTI-MEM media without serum. Cells (Tet/on and Tet/off) at the time of plating were treated every 24 hours with vehicle (0.05% final DMSO) or experimental compounds (FIG. 5A, C458-C461; FIG. 5B, C462-C465) at 2.5 μM and 5 μM. Cell viability was measured with an MTT assay 72 hours later. Experiments were performed in triplicates. Every 96-well plate had its own on/off control. Four experimental compounds were tested per each plate. Experiments were repeated independently twice.
as §1, with “FIG. 6A is” for “FIGS. 5A and 5B are”, “graph” for “pair of graphs”, “(C470-C473)” for “(FIG. 5A, C458-C461; FIG. 5B, C462-C465)”, “twice. […] Toxicity of C463 under the same experimental conditions is shown for comparison. Cells were treated with 5 μM of each compound.” for “twice.”
FIGS. 9A-9D are a series of graphs plotting the half maximal effective concentration (EC50) for each of four experimental compounds against Aβ toxicity in MC65 Tet on/off cells. FIG. 9A, C455; FIG. 9B, C458; FIG. 9C, C460; FIG. 9D, C472.
FIGS. 11A and 11B are graphs plotting survival of MC65 cells cultured for 72 hours in the presence (on; FIG. 11A) or absence (off, FIG. 11B) of tetracycline in OPTI-MEM media without serum. Cells (Tet/on and Tet/off) at the time of plating were treated with either vehicle (0.05% final DMSO) or experimental compounds at 2.5 μM every 24 hours. Cell viability was measured with an MTT assay 72 hours later. Experiments were performed in triplicate, and every 96-well plate had its own on/off control. Four experimental compounds were tested per plate. Experiments were repeated independently twice.
FIGS. 15A and 15B are graphs plotting percent survival of MC65 cells cultured in the presence of tetracycline (Tet-On) (FIG. 15A) or without tetracycline (Tet-off) (FIG. 15B) in OPTI-MEM media without serum. […] Cell viability was measured with an MTT assay 72 hours after plating. Experiments were performed in triplicate, and were repeated independently twice.
The efficacy of all 24 compounds against Aβ toxicity was evaluated in MC65 cells. […] The viability of MC65 cells expressing Aβ (Tet/off, 40% viability) or not expressing Aβ (Tet/on, 100% viability) was measured after treatment with individual compounds. Results for all 24 compounds against Aβ toxicity are presented in FIGS. 4A, 4B, 5A, 5B, 6A, and 6B.
To further characterize the efficacy of these four compounds, the half maximal effective concentration (EC50) against Aβ toxicity in MC65 cells was measured using an MTT assay. […]

ATP production = assay: ATP levels in primary embryonic cortical neurons; assay type: cell-based, mouse; conditions: 10 nM to 5 μM, 24 hours
Experimental: FIGS. 12A and 12B are a pair of graphs plotting ATP levels in primary embryonic cortical neurons that were seeded on 96-well plates at 30,000 cells per well and treated with the indicated compounds at concentrations ranging from 10 nM to 5 μM, as indicated. ATP levels were measured 24 hours later using an ATP determination Kit (Life Technologies; Carlsbad, CA). ATP levels are expressed as a percent of vehicle treated (control) cells. All experiments were performed twice in 6 replicates.
FIG. 17 is a graph plotting ATP levels in primary embryonic cortical neurons after seeding on a 96-well plate at 30,000 cells per well and being treated seven days later with the indicated compounds at concentrations of 100 nM, 2 μM, and 5 μM. ATP levels were measured 24 hours after treatment using the bioluminescent CellTiter-GLO 2 assay (Promega, Madison, WI). All experiments were performed in 6 replicates.
To further characterize these nine new compounds, Complex I activity was measured in isolated mitochondria, and levels of ATP, NAD+, and NADH were measured in primary mouse embryonic cortical neurons (FIGS. 16-18).

[3] = test system: cancer cell lines (HeLa, Panc1, p53−/− ms TCL, Patu, Su); assay: Survival of cancer cell lines (MTT assay); assay type: cell-based, human; conditions: 5 μM or 50 μM, particularly at the higher dose
Text: (§2) FIGS. 20A-20G are a series of graphs plotting the effect of the indicated compounds on survival of various cancer cells vs. control. FIG. 20A, HeLa cervical cancer cells; FIG. 20B, Panc1 pancreatic cancer cells; FIG. 20C, P-WT: mouse embryonic fibroblasts (MEFs; control); FIG. 20D, P++: MEFs; FIG. 20E, p53−/− ms T-cell lymphoma (TCL) cells; FIG. 20F, Patu pancreatic cancer cells; FIG. 20G, Su pancreatic cancer cells.
(§3) The following […] cell lines were used: HeLa (cervical cancer, FIG. 20A); Panc1 (pancreatic cancer, FIG. 20B); P-WT MEFs (control, FIG. 20C), P++ MEFs (accelerated aging phenotype, FIG. 20D) p53−/− ms TCL (FIG. 20E); Patu (pancreatic cancer, FIG. 20F), and Su (pancreatic cancer, FIG. 20G).

[4] = test system: P++ MEFs (accelerated aging phenotype); assay: Growth of P++ mouse embryonic fibroblasts (MTT assay); assay type: cell-based; conditions: 5 μM or 50 μM
Text: as §2, §3

NAD+ and NADH levels = NAD+ and NADH levels in primary embryonic cortical neurons (NAD+/NADH-GLO assay); assay type: cell-based, mouse; conditions: among C687-C695; 100 nM, 2 μM and 5 μM
Experimental: FIGS. 14A and 14B are graphs plotting NAD^+ and NADH levels (FIG. 14A) or the NAD^+/NADH ratio (FIG. 14B) in primary embryonic cortical neurons after treatment with the indicated compounds. Neurons were seeded on 96-well plates at 30,000 cells per well. Seven days later, cells were treated with each compound at 2 μM. NAD^+ and NADH levels were measured 24 hours later using the bioluminescent NAD^+/NADH-GLO assay (Promega; Madison, WI). NAD^+ and NADH levels are expressed as a percent of vehicle treated (control) cells (FIG. 14A). All experiments were performed in 6 replicates.
FIGS. 18A-18C are graphs plotting the level of NAD+ (FIG. 18A), the level of NADH (FIG. 18B), and the ratio of NAD+/NADH (FIG. 18C) in primary embryonic cortical neurons that were seeded on a 96-well plate at 30,000 cells per well and treated seven days later with the indicated compounds at concentrations 100 nM, 2 μM and 5 μM. NAD+, NADH, and NAD+/NADH ratio were measured using a bioluminescent NAD+/NADH-GLO assay (Promega). All experiments were performed in 6 replicates.

Cc1cccc(O[C@@H]2CCC[C@H](C(C)CNCc3ccncc3)C2)c1 (relative stereo) [Compound C458, cis-(N-(pyridin-4-ylmethyl)-2-(3-(m-tolyloxy)cyclohexyl)propan-1-amine)]
histology of adult WT mice [1]: did not cause histological abnormalities
pathology of newborn mice conceived by treated breeding WT mice [1]: no pathological abnormalities were detected
Brain Concentration ([2]; 0.5 hr): 390 ng/g
Plasma Concentration ([2]; 0.5 hr): 41.4 ng/mL
Brain Concentration ([2]; 1 hr): 149 ng/g
Plasma Concentration ([2]; 1 hr): 15.2 ng/mL
Brain Concentration ([2]; 2 hr): 76.4 ng/g
Plasma Concentration ([2]; 2 hr): 10.3 ng/mL
bioavailability ([2]; from elimination rate and half-life in plasma and brain): good bioavailability
CNS penetration ([2]; mice, intravenous): significant CNS penetration; also recorded: penetrates the blood brain barrier and accumulates in the brain
concentration at 0.5 h ([2]; brain, intravenous, 0.5 hr, read-out: Brain Concentration): 316 ng/g
concentration at 1 h ([2]; brain, intravenous, 1 hr, read-out: Brain Concentration): 118 ng/g
concentration at 2 h ([2]; brain, intravenous, 2 hr, read-out: Brain Concentration): 68.2 ng/g
half-life ([2]; brain, intravenous, 2.5 mg/kg intrafemoral vein injection, one-compartment model, first rate elimination, read-out: estimated half-life in brain): 42 min
Kp ([2]; brain, intravenous, 2.5 mg/kg intrafemoral vein injection, read-out: concentration in the brain, times higher than in plasma): 7 to 8
Kp ([2]; brain, iv, wild type mice, intravenously at 2 mg/kg, read-out: concentration in brain tissue, times higher (w/v) than in plasma): 7 to 10
concentration at 0.5 h ([2]; plasma, intravenous, 0.5 hr, read-out: Plasma Concentration): 43.7 ng/mL
concentration at 1 h ([2]; plasma, intravenous, 1 hr, read-out: Plasma Concentration): 13 ng/mL
concentration at 2 h ([2]; plasma, intravenous, 2 hr, read-out: Plasma Concentration): 9.83 ng/mL
half-life ([2]; plasma, intravenous, 2.5 mg/kg intrafemoral vein injection, one-compartment model, first rate elimination, read-out: estimated half-life in plasma): 48 min
half-life ([2]; serum, iv, wild type mice, intravenously at 2 mg/kg, read-out: apparent t1/2 in the blood): 48 min
cell protective activity in Aβ-producing MC65 cells (MC65 cells; 72 hours): promising cell protective activity
fold higher efficacy (lower EC50) of C458 than CP2 (MC65 cells; EC50 against Aβ toxicity): 20- to 30 fold and 30 fold
fold higher efficacy of C458 than C455 and C460 (MC65 cells; EC50 against Aβ toxicity): 100 fold
EC50 (MC65 cells; MC65, MTT assay): ~4 nM
EC50 (MC65 cells; MTT assay): 3.59 nM
effect on ATP production (ATP production): modestly reduced ATP production

Cc1cc2c(c(=O)o1)C=C1CCN(C(C)CCc3ccc(O)cc3)C[C@@H]1O2 (some centres unmarked) [Compound C455]
growth of cancer cell lines [3]: suppressed growth of the cancer cell lines tested
cell protective activity in Aβ-producing MC65 cells (MC65 cells; 72 hours): promising cell protective activity
growth of P++ MEFs [4]: suppress the growth
effect on ATP production (ATP production): modestly reduced ATP production

Cc1cc2c(c(=O)o1)C=C1CCN(C(=O)Cc3cccc(O)c3)C[C@@H]1O2 [Compound C460]
growth of cancer cell lines [3]: suppressed growth of the cancer cell lines tested
cell protective activity in Aβ-producing MC65 cells (MC65 cells; 72 hours): promising cell protective activity
efficacy against Aβ toxicity (representative images, FIG. 6B) (MC65 cells; 5 μM, 72 hours, Tet/on and Tet/off): efficacy
growth of P++ MEFs [4]: suppress the growth
effect on ATP production (ATP production): little or no effect

Cc1cccc(O[C@@H]2CCC[C@H](C(C)CN(C)Cc3ccncc3)C2)c1 (some centres unmarked) [Compound C693]
efficacy in increasing NADH and decreasing NAD+/NADH ratio (NAD+ and NADH levels): highest efficacy

Cc1cccc(O[C@@H]2CCC[C@H](C(C)CN(Cc3ccncc3)C(C)C)C2)c1 (some centres unmarked) [Compound C694]
efficacy in increasing NADH and decreasing NAD+/NADH ratio (NAD+ and NADH levels): highest efficacy

Reference: patent publication US12017992B2, “Compounds for modulating mitochondrial function” (Mayo Foundation for Medical Education and Research, priority 2015, dated 2024)
